How the values were obtained:
[1] = system: C-26 colon adenocarcinoma cachexia model; test: Combined androgen and AR-42 study (Study 3), C-26 model; format: in vivo, mouse
Method: (§1) These studies were performed as previously described (Tseng Y C, et al. J Natl Cancer Inst. 2015 107(12):djv274) with modifications. Tumors were established in the right flank by subcutaneous injection of C-26 cells (0.5×10^6 cells in 0.1 mL). […] TFM-4AS-1 (a potent experimental SARM), dihydrotestosterone (DHT) and vehicles were administered by subcutaneous injection.
Six days after cell injection, animals with palpable tumors were treated once daily for 13 days with vehicles for AR-42 and TFM-4AS-1/DHT (n=9), AR-42 (10 mg/kg; TFM-4AS-1/DHT vehicle; n=10), TFM-4AS-1 (10 mg/kg; AR-42 vehicle; n=9), DHT (3 mg/kg; AR-42 vehicle; n=10), the combination of AR-42 and TFM-4AS-1 (10 mg/kg each; n=9), or the combination of AR-42 (10 mg/kg) and DHT (3 mg/kg)(n=10). Grip strength was measured and tissues collected as in the previous studies.
(§2) Forelimb grip strength was measured using Bio-GS3 Grip Strength Test Meter (Forceleader DBA Bioseb, Pinellas Park, Fla.). Each mouse was held by the base of its tail and lowered over the apparatus until its forepaws grasped the metal pull bar. The mouse was then gently pulled horizontally in a straight line away from the grip strength meter until the mouse released the bar. The force applied to the bar at the moment of release was recorded as the peak force. Five measurements were taken from each mouse, the average of which was designated as the mouse's grip strength.

[2] = system: C-26 colon adenocarcinoma cachexia model; test: Confirmatory AR-42/GTx-024 combination study (Study 2), C-26 model; format: in vivo, mouse
Method: as §1
This confirmatory study was performed exactly as Study 1 with expanded animal numbers. Tumor-free control groups were maintained at 6 animals each, whereas 10 animals were included in each of the tumor-bearing groups. […] Grip strength was measured on study days 0 (baseline) and 16. Due to rapid model progression, this study was terminated after only 12 days of treatment.
as §2

[3] = oral gavage every other day; cited from earlier work
[4] = system: gastrocnemius transcriptome; test: RNA-seq of gastrocnemius muscles, Study 1; format: in vivo, mouse; conditions: for expression of Wnt5a, Fzd1, β-catenin (CTNNB1) and GSK3B: gastrocnemius of tumor-bearing mice, AR-42: with the exception of β-catenin
Method: For each sample, 600 ng total RNA (Bioanalyzer RIN values>7) was used to generate polyA enriched RNA-seq libraries with the NEBNext Ultra II Directional RNA Library Prep Kit (New England Biolabs, Inc., catolog number E7760) and sequenced as PE-150 reads on HiSeq 4000 (Illumina Inc, San Diego, Calif.). Raw fastq files were adaptor trimmed using Trimmomatic (Bolger, A. M., et al. Bioinformatics 2014 30(15):2114-2120), aligned to the mm10 genome with Subread (Liao Y, et al. Nucleic Acids Res. 2013 41(10):e108), and marked for duplicate reads with Picard v2.3.0. Samtools (Li H., et al. Bioinformatics 2014 25:2078-9) was used to calculate post-alignment quality control metrics (Table 3). A gene-based counts matrix was generated with the summarizeOverlaps function of GenomicAlignments (Lawrence M, et al. PLoS Comput Biol 9(8):e1003118) and analyzed with DESeq2 (Love, M. I., et al. Genome biology 15(12):550) for genes differentially expressed among groups. GSEAPreranked analyses (Subramanian A, et al. Proc Natl Acad Sci USA. 2005 102:15545-15550) were performed using the signed log 10 p-values for each gene to test for significant enrichment of gene sets in the ‘TF Targets’ file downloaded from ge-lab.org/#/data. Any duplication in signed log 10 p-values was removed prior to running the GSEAPreranked analyses by adding a small value sampled at random from a normal distribution with mean zero and standard deviation 0.00001 to each duplicated value. GSEAPreranked analyses were performed in classic mode on gene sets with a minimum and maximum of 5 and 5000 genes in the gene set, respectively, and were followed by leading-edge analyses for selected comparison and gene set combinations. Heatmaps for RNA-seq data were generated with pheatmap using z-scores calculated from log count-per-million values obtained with the ‘cpm’ function in EdgeR (Robinson, M. D., et al. Bioinformatics 2010 26:139-140).

Row | SMILES | terminal body weight ([1]; Study 3, Day 17, of baseline, C-26 tumor-bearing, AR-42 10 mg/kg oral, TFM-4AS-1 10 mg/kg s.c., DHT 3 mg/kg s.c.) | effect on mass of gastrocnemius or quadriceps ([1]; Study 3, monotherapy (TFM-4AS-1 10 mg/kg; AR-42 10 mg/kg)) | spleen mass ([2]; Study 1 and 2, C-26 tumor-bearing, normalized to tumor-corrected terminal body weight) | forelimb grip strength ([2]; Study 2, day 16, C-26 tumor-bearing) | adipose or heart mass ([2]; Study 2, AR-42 10 mg/kg) | effect on gastrocnemius and quadriceps mass ([2]; Study 2, C-26 tumor-bearing, versus vehicle-treated tumor-bearing controls) | maximally tolerated dose in mice [3] [mg/kg] | IL-6 receptor (IL-6RA) mRNA expression in gastrocnemius ([4]; cachectic mice) | expression of Wnt5a, Fzd1, β-catenin (CTNNB1) and GSK3B [4]
1 | CC(C)[C@H](C(=O)Nc1ccc(C(=O)NO)cc1)c1ccccc1 [AR-42, (S)—N-hydroxy-4-(3-methyl-2-phenylbutanamido)benzamide] | 93.5±4.8 | did not significantly impact skeletal muscle masses | either unchanged or slightly increased | improved grip strength over vehicle-treated tumor-bearing controls | had no impact on adipose or heart mass | significantly spared gastrocnemius and quadriceps mass | 50 | restore non-cachectic control levels | effectively reversed tumor-induced regulation
2 | C[C@](O)(COc1ccc(C#N)cc1)C(=O)Nc1ccc(C#N)c(C(F)(F)F)c1 [GTx-024, (2S)-3-(4-cyanophenoxy)-N-(4-cyano-3-(trifluoromethyl)phenyl)-2-hydroxy-2-methylpropanamide] | – | – | – | – | – | – | – | – | failed to restore expression to tumor-free control levels

From US11529323B2 (priority 2017, dated 2022)
